Source: paper PMC9738531, “Cholinesterases Inhibition, Anticancer and Antioxidant Activity of Novel Benzoxazole and Naphthoxazole Analogs” (Molecules, 2022)

Key:
[1] = test system: SW707 (rectal adenocarcinoma) cells; assay: SRB antiproliferative assay, SW707; assay type: cell-based, human; conditions: Homo sapiens, SW707, 72 h, means ± SD, read-out: IC50 SW 707
Protocol: (§1) The compounds were also evaluated for their antiproliferative potencies against human cancer cell lines as the potential anticancer agents. […]. The results are presented in Table 3 and expressed as IC50 (μM). In that score, the highest potency was shown by the analogs from the naphtho[1,2-d][1,3]oxazole group 8–10, particularly by derivative 10 with a chlorine atom on the benzenediol moiety.
(§2) In the antiproliferative assay in vitro, the following human cell lines were applied: T47D (breast cancer), SW707 (rectal adenocarcinoma), A549 (non-small cell lung carcinoma) from the American Type Culture Collection (Rockville, MD, USA) and HCV29T (bladder cancer) from the Fibiger Institute, Copenhagen, Denmark. Cytotoxicity assay was performed after 72 h exposure of the cultured cells at the concentration ranging from 0.1 to 100 μg/mL of the tested agents. The SRB test measuring the cell proliferation inhibition in the in vitro culture was applied. The cellular material fixed with TCA was stained with 0.4% sulforhodamine B (Chemie GmbH, Steinheim, Germany) dissolved in 1% acetic acid (POCh, Gliwice, Poland) for 30 min.

[2] = test system: normal keratinocytes HaCaT cells; assay: LDH cytotoxicity assay, HaCaT normal cells; assay type: cell-based, human; conditions: HaCaT, tested concentration to 25 µM, 72 h
Protocol: (§3) In view of the observed antiproliferative activity, the influence of the tested compounds on the normal human cells—normal mammary gland epiterial cells of the MCF10A line and the normal keratenocytes HaCaT line—was examined (Figure 5). The cells were treated with compounds 3, 8 and 10 in the concentration range from 0.1 µM to 25 µM for 72 h, after which the cell viability was tested by analysis of the level of released lactate dehydrogenase (LDH method).
(§4) Normal human epithelial cells from the mammary gland, MCF10A (a generous gift from our colleague Dr. Saraswati Sukumar (JHU), who obtained them recently from ATCC), and normal human keratinocytes HaCaT (also obtained from ATCC), were cultured in DMEM/F12 medium (Gibco), supplemented with 5% horse serum (Gibco), 5% FBS (Sigma-Aldrich Chemie GmbH, Taufkirchen, Germany ), penicillin streptomycin solution (1×) (Gibco) at 37 °C and 5% CO2. The cells were subcultured twice a week.
(§5) Human epiterial breast cells MCF10A and human keratinocytes HaCaT (1 × 10^4/mL) cells were placed on 96-well plates (Nunc, Roskilde, Denmark). The next day, the cells were exposed to increasing concentrations of compounds 3, 8 and 10 in 0.1, 0.25, 0.5, 1, 2.5, 5, 10 and 25 μM in fresh culture medium. Cytotoxicity was estimated based on the measurements of cytoplasmic lactate dehydrogenase (LDH) activity released from the damaged cells after the 72 h exposure to the compounds. The LDH assay was performed according to the manufacturer’s instructions (Cytotoxicity Detection KitPLUS LDH, Roche, Mannheim, Germany). Absorbance was measured using a microplate at two different wavelengths: “measurement wavelength” (492 nm) and “reference wavelength” (690 nm), using a microplate.

[3] = Lipophilicity by RP-18 HPLC chromatography; assay type: physicochemical
Excerpt: The lipophilicity parameter was estimated for the tested compounds as it is an important feature that influences the pharmacokinetic properties of bioactive compounds [46, 47]. Lipophilicity also determines some biological activities, such as the antiproliferative or fungistatic activity. For lipophilicity determination, reversed-phase column chromatography was used, with the octadecyl C-18 stationary phase and MeOH as the organic modifier in the isocratic conditions.
HPLC measurements were performed using a liquid chromatograph (Knauer, Berlin, Germany) with a dual pump and a UV-visible detector. The measurements were made at 254 or 320 nm at room temperature. A Eurosil Bioselect C18 (5 μm, 300 × 4.6 mm) column was applied as the stationary phase. The mobile phase consisted of different volume mixtures of 20 mM acetate buffer as the aqueous phase, and MeOH as the organic modifier (pH 7.4). The different concentrations of MeOH from 0.5 to 0.90 (v/v) range was used, depending on the structure of the compound at 0.05 intervals. The flow rate was 1 mL/min. Retention time of an unretained solute (t0) was determined by the injection of a small amount of acetone dissolved in water.
Regular changes in the retention coefficients of compounds in a function of the organic modifier MeOH content in the mobile phase are described by the Soczewiński–Wachtmeister equation [56]:log k = log kw + S φ(1)
φ—the volume fraction of organic modifier (MeOH) in the mobile phase; log kw—the intercept; S—slope of the regression curve. Log kw refers to the retention parameter of a compound with pure water as the mobile phase.

[4] = test system: T47D (breast cancer) cells; assay: SRB antiproliferative assay, T47D; assay type: cell-based, human; conditions: Homo sapiens, T47D, 72 h, means ± SD
Protocol: as §1, §2

[5] = test system: human cancer cell lines (HCV29T, T47D, A549, SW707); assay: SRB antiproliferative assay, all studied cancer cell lines; assay type: cell-based; conditions: read-out: IC50 range against all studied cells
Protocol: as §1, §2

[6] = test system: A549 (non-small cell lung carcinoma) cells; assay: SRB antiproliferative assay, A549; assay type: cell-based, human; conditions: Homo sapiens, A549, 72 h, means ± SD
Protocol: as §1, §2

[7] = DPPH free radical scavenging activity; conditions: concentration scavenging 50% of DPPH radicals; means ± SD of three experiments
Protocol: To evaluate the antioxidant potential of compounds as radical scavengers versus the stable free radicals, 2,2-diphenylpicrylhydrazyl (DPPH) was applied. Antioxidant properties were expressed as the IC50 value—the concentration of compound required for scavenging 50% of DPPH radicals. […].
The DPPH free radical scavenging activities of the synthesized compounds were measured by DPPH, according to the method described in the paper. The free radical scavenging activity was measured as a decrease in the absorbance of DPPH, and calculated using the equation:DPPH scavenging effects (%) = […] [(A0 − A1)/A0]∙100](2) where: A0 was the absorbance of the control reaction and A1 absorbance in the presence of the sample of the analysed compounds [62]. The IC50 values were calculated as the concentration of compound required for scavenging 50% of DPPH [45]. Results were presented as the mean ± standard deviation (SD). The antioxidant activity data were compared using the one-way ANOVA test at the significance level 5%.

[8] = target: T1, Acetylcholinesterase (AChE, E.C. 3.1.1.7, from human erythrocytes) (Homo sapiens, UniProt P22303); assay: biochemical
T1 construct: Acetylcholinesterase (AChE, E.C. 3.1.1.7, from human erythrocytes); purchased Sigma-Aldrich (Steinheim, Germany); host or cells: human erythrocytes (natural source)
Protocol: (§6) The compounds were evaluated by an in vitro assay as the AChE and BChE inhibitors. The studies were carried out using the modified Ellman’s method. […] The inhibitory activities against AChE and BChE of the newly-synthesized compounds were determined exactly, according to a previous paper. […] The samples were analysed in triplicate. IC50 values were designated from a dose–response curve obtained by plotting the percentage of inhibition versus the log concentration, using GraphPad Prism 8 software. […] AChE and BChE activity data were compared using the Kruskal–Wallis test at the significance level of 1%.

[9] = target: T2, butyrylcholinesterase (BChE, E.C. 3.1.1.8, from equine serum) (Equus caballus, UniProt P81908); assay: biochemical; conditions: means ± SEM of three independent experiments
T2 construct: butyrylcholinesterase (BChE, E.C. 3.1.1.8, from equine serum); purchased Sigma-Aldrich (Steinheim, Germany); host or cells: equine serum (natural source)
Protocol: as §6

[10] = test system: HCV29T (bladder cancer) cells; assay: SRB antiproliferative assay, HCV29T; assay type: cell-based, human; conditions: Homo sapiens, HCV29T, 72 h, means ± SD, read-out: IC50 HCV 29T
Protocol: as §1, §2

[11] = test system: normal mammary gland MCF10A cells; assay: LDH cytotoxicity assay, MCF10A normal cells; assay type: cell-based, human; conditions: 72 h
Protocol: as §3, §4, §5

T1 sequence (P22303 other isoform, or with tags, fused parts or gaps): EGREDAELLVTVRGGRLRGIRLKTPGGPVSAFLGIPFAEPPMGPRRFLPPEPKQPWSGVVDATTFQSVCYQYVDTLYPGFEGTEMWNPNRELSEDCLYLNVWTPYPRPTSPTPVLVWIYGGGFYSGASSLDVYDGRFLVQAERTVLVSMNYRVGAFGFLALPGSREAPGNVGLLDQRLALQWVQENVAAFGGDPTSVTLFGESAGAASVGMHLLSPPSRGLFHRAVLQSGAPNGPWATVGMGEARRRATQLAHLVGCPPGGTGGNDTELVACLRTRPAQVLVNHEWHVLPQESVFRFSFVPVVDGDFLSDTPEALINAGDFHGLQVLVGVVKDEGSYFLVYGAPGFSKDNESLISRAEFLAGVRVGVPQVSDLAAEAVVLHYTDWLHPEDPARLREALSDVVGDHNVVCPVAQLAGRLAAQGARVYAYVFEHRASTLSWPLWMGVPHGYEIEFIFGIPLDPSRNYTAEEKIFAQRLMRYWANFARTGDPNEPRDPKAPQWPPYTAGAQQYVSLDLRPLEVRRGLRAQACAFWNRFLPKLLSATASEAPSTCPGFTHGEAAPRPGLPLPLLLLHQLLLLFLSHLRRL
T2 sequence (P81908 whole entry): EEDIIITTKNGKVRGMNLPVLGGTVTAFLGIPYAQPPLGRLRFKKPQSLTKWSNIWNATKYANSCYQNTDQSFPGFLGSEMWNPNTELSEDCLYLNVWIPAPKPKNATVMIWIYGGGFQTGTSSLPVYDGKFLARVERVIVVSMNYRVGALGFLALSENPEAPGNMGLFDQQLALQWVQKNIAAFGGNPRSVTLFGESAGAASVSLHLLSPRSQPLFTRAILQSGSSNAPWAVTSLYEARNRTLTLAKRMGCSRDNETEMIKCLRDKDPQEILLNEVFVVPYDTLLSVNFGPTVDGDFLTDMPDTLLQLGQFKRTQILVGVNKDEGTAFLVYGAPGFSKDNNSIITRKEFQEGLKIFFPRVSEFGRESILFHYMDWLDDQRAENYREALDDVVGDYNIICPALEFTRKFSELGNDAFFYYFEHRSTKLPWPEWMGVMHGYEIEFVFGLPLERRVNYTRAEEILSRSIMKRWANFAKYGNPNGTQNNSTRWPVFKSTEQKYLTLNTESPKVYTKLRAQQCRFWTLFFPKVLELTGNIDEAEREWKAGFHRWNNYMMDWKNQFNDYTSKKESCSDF

With `Oc1cc(O)c(-c2nc3c(ccc4ccccc43)o2)cc1Cl` [Compound 10, 4-Chloro-6-(naphtho[1,2-d][1,3]oxazol-2-yl)benzene-1,3-diol] the IC50 [1] was 2890 ± 340 nM, the “toxicity to keratinocytes (LDH release)” value [2] was “not toxic” and the “-S (slope of log k vs MeOH fraction)” value ([3]; MeOH/acetate buffer, pH 7.4) was 4.996. It also gave a log kw ([3]; pH 7.4, extrapolation to pure water as mobile phase) of 4.518, an IC50 [4] of 2180 ± 1050 nM and an IC50 [5] of 2180 to 2890 nM. For the same compound, the IC50 [6] was 2710 ± 120 nM, the IC50 [7] was 633 ± 146 nM and the “Selectivity for AChE” value ([8]; IC50 (BChE)/IC50 (AChE)) was 1.278. For the same compound, the IC50 ([8]; means ± SEM of three independent experiments) was 694 ± 11 nM, the IC50 [9] was 887 ± 41 nM and the IC50 [10] was 2240 ± 830 nM. The “change in level of lactate dehydrogenase” value ([11]; 0.1–5 µM, vs control) was “statistically significant reduction” and the “toxicity to normal breast cells (LDH release)” value ([11]; tested concentration to 25 µM) was “not toxic”.
